Reference: PubChem BioAssay AID2060492 (Molecular Pharmacology Branch, DTP, NCI, 2025)
Where “and” joins values, the source holds several entries; their conditions need not be identical. Equal values may be shown once.

System: 695427-040-R-J1-PDC complex spheroids, viability percent T/C
Experiment: Anticancer human tumor 695427-040-R-J1-PDC patient-derived colon adenocarcinoma cell line growth inhibition [GQUAD]
Details: for viability, T/C: stronger effect = lower value
Source text: DNA G-quadruplex Stabilizer Agents in Combinations in Complex Spheroids
A high-throughput screen of multi-cell type tumor spheroids was designed to identify active combinations of DNA G-quadruplex stabilizer agents and targeted small molecules. Complex spheroids include a stromal component modeled by human endothelial cells (HUVEC) and fibroblasts modeled by human mesenchymal stem cells (MSCs). The concentration ranges selected for each drug and investigational agent were based upon clinically achievable concentrations if the clinical Cmax of the agent was known.
Compounds. The drugs and investigational agents: pidnarulex (CX-5461; NSC782164), APTO-253 (NSC789042), BRACO-19 (NSC847499), peposertib (NSC802822), ceralasertib (NSC780249), elimusertib (NSC800525), camonsertib (NSC841442), AZD-1390 (NSC803789), olaparib (NSC753686), talazoparib (NSC767125), ART-558 (NSC835418), sotorasib (NSC818433), MRTX-1133 (NSC836407), SN-38 (NSC673596), topotecan (NSC609699), etoposide (NSC141540), doxorubicin (NSC123127), gemcitabine (NSC613327), 5-fluorouracil (NSC19893), paclitaxel (NSC125973), vemurafenib (NSC761431), panobinostat (NSC761190), R-306465 (JNJ-16241199; NSC773264), adavosertib (NSC754352), TP-3654 (NSC805149), carboplatin (NSC241240), KSQ-4279 (NSC840948), and staurosporine (NSC755774) were obtained from the National Cancer Institute (NCI) Developmental Therapeutics Program Chemical Repository (34). The FDA-approved anticancer drug set is available from the NCI Developmental Therapeutics Program. […] The stock solutions were prepared in dimethyl sulfoxide (DMSO, Sigma-Aldrich, St. Louis, MO, cat. D2650) at 800-fold the tested concentration and stored at -70 degrees C prior to their use. All drugs and investigational agents were tested over a range starting from a high concentration at or near the clinical Cmax and decreasing in half-log increments. If the clinical Cmax for an agent had not been determined, the highest concentration tested was 10 microM.
2.3 Cell Culture. All cells were maintained in an incubator at 37 degrees C and 5% CO2 with 95% humidity. The PDC lines were cultured according to standard operating procedures established by the NCI PDMR. All PDCs were thawed and cultured in Matrigel-coated flasks prepared with a working solution of 1X Ham's F-12 nutrient mix, without supplementation (Invitrogen, cat. 11765054), 100 U/mL penicillin-streptomycin (Invitrogen, cat. 15140122), and 2.5% Matrigel (Corning Inc., cat. 354248) for the first three passages. The 857933-349-R-J2-PDC line was cultured in 6C/Colon 1B media, which includes advanced DMEM/F-12 (Thermo Fisher Scientific, cat. 12634028), 10 mM HEPES (Thermo Fisher Scientific, cat. 15630080), 1X GlutaMAX supplement (Thermo Fisher Scientific, cat. 35050061), 0.1 mg/mL primocin (InvivoGen, cat. ant-pm-2), 10% defined fetal bovine serum, heat inactivated (HyClone Laboratories Inc., cat. SH30070.03HI), 50% L-WRN conditioned media (ATCC, cat. CRL-3276), 1.25 mM N-Acetyl-L-cysteine (Sigma-Aldrich, cat. A9165), 10 mM nicotinamide (Sigma-Aldrich, cat. N0636), 1X B-27 supplement (Thermo Fisher Scientific, cat. 17504044), 1X N-2 supplement (Thermo Fisher Scientific, cat. 17502048), 10 microM Y-27632 dihydrochloride (Tocris Bioscience, cat. 1254), and 50 ng/mL human EGF recombinant protein (Thermo Fisher Scientific, cat. PHG0311). The 485176-168-R4-J1-PDC line was cultured in Panc media, which includes all 6C/Colon 1B media components plus 100 ng/mL human FGF-10 (Thermo Fisher Scientific, cat. 100-26), 500 nM SB-431542 (Selleckchem, cat. S1067), and gastrin (Tocris, cat. 3006).
[…]
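Also: spheroids exposed to compounds for seven days before readout.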

Row | Compound | IC50 (curve of compound) | IC50 (compound alone, run of 04/16/2024) | IC50 (compound alone, run of 04/22/2024) | viability, T/C (compound 0.0316 µM) | viability, T/C (compound 0.1 µM) | viability, T/C (compound 0.316 µM) | viability, T/C (compound 1 µM) | viability, T/C (compound 3.16 µM) | viability, T/C (compound 10 µM) | viability, T/C (compound 0.000999 µM) | viability, T/C (compound 0.00316 µM) | viability, T/C (compound 0.00999 µM) | viability, T/C (compound 0.0999 µM)
1 | COc1cc(C2c3cc4c(cc3C(OC3OC5COC(C)OC5C(O)C3O)C3COC(=O)C23)OCO4)cc(OC)c1O (stereo unspecified) | > 10 µM | – | – | 96.9% and 98.6% and 100% | 90.3% and 81.4% and 90% | 110% and 86.1% and 104% | 97.4% and 90% and 94.7% | 95.6% and 68.2% and 90.1% | 77.5% and 61.8% and 75.3% | – | – | – | –
2 | COc1ccc([C@@H](O)c2cc(-c3ncnc4cc(N5CCOCC5)ccc34)c(F)cc2Cl)nn1 | > 10 µM and 7.33 µM | – | – | 91.1% and 96.7% and 94.1% | 79.7% and 91.7% and 86.8% | 101% and 91.6% and 95.4% | 70.5% and 92% and 82.2% | 69% and 67.2% and 61% | 50.5% and 51% and 46% | – | – | – | –
3 | COc1cccc2c1C(=O)c1c(O)c3c(c(O)c1C2=O)CC(O)(C(=O)CO)CC3OC1CC(N)C(O)C(C)O1 (stereo unspecified) | 8.21 µM and 8.19 µM and 5.94 µM | – | – | 108% and 100% and 89.9% | 88.7% and 92.9% and 92.4% | 90.9% and 94.7% and 84.1% | 90.9% and 89.8% and 68.8% | 74.8% and 60.3% and 59% | 44.5% and 47.9% and 43.7% | – | – | – | –
4 | Cc1[nH]c2ccccc2c1CCNCc1ccc(/C=C/C(=O)NO)cc1 | > 0.316 µM | – | – | 98.7% and 110% and 101% | – | 89.6% and 68% and 71.7% | – | – | – | 98.8% and 112% and 98% | 103% and 100% and 96.8% | 98.5% and 103% and 99.5% | 96.6% and 93.8% and 94.2%
5 | Cc1cccc(N(C)C(=O)C2C(O)CCN2c2nc(C)cc(C(F)(F)F)c2C#N)c1 (stereo unspecified) | > 10 µM | – | – | 109% and 104% and 116% | 90.7% and 90.4% and 93.4% | 88.3% and 106% and 102% | 101% and 94.8% and 87.2% | 85.2% and 105% and 78.1% | 87.4% and 90.2% and 74.4% | – | – | – | –
6 | Cc1cnc(CNC(=O)c2c(=O)c3ccc(N4CCCN(C)CC4)nc3n3c2sc2ccccc23)cn1 | – | – | – | 95.8% [middle of 12 runs] | 91.6% [middle of 12 runs] | 85.3% [middle of 12 runs] | 76.2% [middle of 12 runs] | 58% [middle of 12 runs] | 44.7% [middle of 12 runs] | – | – | – | –
7 | O=C(NO)c1cnc(N2CCN(S(=O)(=O)c3ccc4ccccc4c3)CC2)nc1 | – | – | – | 99.2% and 107% and 96.1% | 97.4% and 90.7% and 87.3% | 98% and 73.8% and 71.3% | – | – | – | – | – | – | –
8 | O=C(c1cc(Cc2n[nH]c(=O)c3ccccc23)ccc1F)N1CCN(C(=O)C2CC2)CC1 | > 10 µM | – | – | 84.8% and 115% and 98.4% | 94.2% and 98.6% and 103% | 93.2% and 99.7% and 95.8% | 99.4% and 97.6% and 92.7% | 72.7% and 105% and 88.9% | 88% and 93.6% and 77.6% | – | – | – | –
9 | O=c1[nH]cc(F)c(=O)[nH]1 | > 10 µM | – | – | 95.9% and 105% and 110% | 85.8% and 99.6% and 96.4% | 86% and 106% and 100% | 97.5% and 100% and 88.9% | 80.1% and 63.3% and 102% | 86.5% and 98.3% and 92% | – | – | – | –

Continued, in another order:

Row | IC50 (curve of compound) | IC50 (compound alone, run of 04/16/2024) | IC50 (compound alone, run of 04/22/2024) | Compound | viability, T/C (compound 0.0316 µM) | viability, T/C (compound 0.1 µM) | viability, T/C (compound 0.316 µM) | viability, T/C (compound 1 µM) | viability, T/C (compound 3.16 µM) | viability, T/C (compound 10 µM) | viability, T/C (compound 0.000999 µM) | viability, T/C (compound 0.00316 µM) | viability, T/C (compound 0.00999 µM) | viability, T/C (compound 0.0999 µM)
10 | > 10 µM | – | – | COc1ncnc(C2CC2)c1-c1ncc2cnn(Cc3ccc(-c4nc(C(F)(F)F)cn4C(C)C)cc3)c2n1 | 86.9% and 97.4% and 103% | 92.5% and 96.3% and 95.5% | 93.3% and 102% and 94.6% | 81.1% and 99.2% and 93% | 71.3% and 107% and 93.5% | 82% and 78% and 98% | – | – | – | –
11 | – | > 10 µM | > 10 µM | Cc1[nH]c2ccc(F)cc2c1-c1nc2c3cccnc3c3ncccc3c2[nH]1 | – | 103% [middle of 12 runs] | 102% [middle of 12 runs] | 97% [middle of 12 runs] | 87.2% [middle of 12 runs] | 80.3% [middle of 12 runs] | – | – | – | –
12 | > 0.316 µM | – | – | Cn1ncnc1[C@H]1c2n[nH]c(=O)c3cc(F)cc(c23)N[C@@H]1c1ccc(F)cc1 | 108% and 98.7% and 87.9% | – | 69.6% and 93.1% and 74.3% | – | – | – | 93.3% and 88.5% and 90.8% | 80.2% and 90.7% and 85.4% | 88.3% and 95.7% and 109% | 99.3% and 102% and 82.7%
13 | > 10 µM and 4.78 µM | – | – | Nc1ccn(C2OC(CO)C(O)C2(F)F)c(=O)n1 (stereo unspecified) | 81.8% and 90.5% and 89.3% | 77.1% and 75.9% and 76.4% | 72.5% and 81.7% and 66.8% | 64.7% and 73.6% and 62.1% | 51.1% and 69.9% and 47% | 54.9% and 64.9% and 48.6% | – | – | – | –
